Data taken from ChEMBL document CHEMBL4814018, “Rationally designed TNF-α inhibitors: Identification of promising cytotoxic agents” (Bioorg Med Chem Lett, 2021).
pIC50: −log10 of the molar value. Activity calls are given as the source filed them. The calls are words filed in the database; no cut-off is given here.

How the values were obtained:
BV-2 [1] = test: Cytotoxicity against mouse BV2 cells incubated for 48 hrs by MTT assay; assay type: cell-based; settings: BV-2, 48 h
OVCAR-3 = test: Growth inhibition of human OVCAR-3 cells at 10 uM incubated for 48 hrs by sulforhodamine B assay relative to control; assay type: functional; settings: read-out: GI
K562 = test: Growth inhibition of human K562 cells at 10 uM incubated for 48 hrs by sulforhodamine B assay relative to control; assay type: functional; settings: read-out: GI
RPMI-8226 = test: Growth inhibition of human RPMI8226 cells at 10 uM incubated for 48 hrs by sulforhodamine B assay relative to control; assay type: functional; settings: read-out: GI
BV-2 [2] = test: Antiinflammatory activity against mouse BV2 cells assessed as decrease in LPS-induced NO production at 1 to 5 uM pretreated with compound followed by LPS stimulation incubated for 4 to 48 hrs by enzyme immunoassay; assay type: functional, cell-based; settings: dose 1-5 µM, time 4-48 hrs
MDA-MB-231 = test: Growth inhibition of human MDA-MB-231 cells at 10 uM incubated for 48 hrs by sulforhodamine B assay relative to control; assay type: functional; settings: read-out: GI
HCT-116 = test: Growth inhibition of human HCT-116 cells at 10 uM incubated for 48 hrs by sulforhodamine B assay relative to control; assay type: functional; settings: read-out: GI
BV-2 [3] = test: Antiinflammatory activity against mouse BV2 cells assessed as reduction in LPS-induced IL6 production at 1 uM by enzyme immunoassay; assay type: functional, cell-based
SW-620 = test: Growth inhibition of human SW-620 cells at 10 uM incubated for 48 hrs by sulforhodamine B assay relative to control; assay type: functional; settings: read-out: GI
SR = test: Growth inhibition of human SR cells at 10 uM incubated for 48 hrs by sulforhodamine B assay relative to control; assay type: functional; settings: read-out: GI
MCF7 = test: Growth inhibition of human MCF7 cells at 10 uM incubated for 48 hrs by sulforhodamine B assay relative to control; assay type: functional; settings: read-out: GI
CAKI-1 = test: Growth inhibition of human CAKI-1 cells at 10 uM incubated for 48 hrs by sulforhodamine B assay relative to control; assay type: functional; settings: read-out: GI
BV-2 [4] = test: Antiinflammatory activity against mouse BV2 cells assessed as inhibition of LPS-induced TNFalpha production at 1 uM by enzyme immunoassay; assay type: functional

| SMILES | pIC50 (BV-2 [1]) | inhibition of growth at 10 µM (OVCAR-3) [%] | inhibition of growth at 10 µM (K562) [%] | inhibition of growth at 10 µM (RPMI-8226) [%] | Activity (BV-2 [2]) | inhibition of growth at 10 µM (MDA-MB-231) [%] | inhibition of growth at 10 µM (HCT-116) [%] | Activity (BV-2 [3]) | inhibition of growth at 10 µM (SW-620) [%] | inhibition of growth at 10 µM (SR) [%] | inhibition of growth at 10 µM (MCF7) [%] | inhibition of growth at 10 µM (CAKI-1) [%] | Activity (BV-2 [4]) |
| --- | --- | --- | --- | --- | --- | --- | --- | --- | --- | --- | --- | --- | --- |
| Cc1ccc(S(=O)(=O)n2cc(C3C(Cl)C(=O)N3c3ccc(N4CCOCC4=O)cc3)c3ccccc32)cc1 (centres undefined) | < 5.00 | 70 | 77 | 78 | Active | 83 | 83 | Active | 74 | 75 | 80 | 75 | Active |
| O=C1COCCN1c1ccc(N2C(=O)C(Cl)C2c2cn(Cc3ccc(F)cc3)c3ccccc23)cc1 (centres undefined) | < 5.00 | – | – | – | – | – | – | – | – | – | – | – | – |
